# Laboratory results as given in patent US20260007600A1, “NUCLEIC ACID DRUG FOR TREATING HYPERURICEMIA-RELATED DISEASES, PREPARATION METHOD THEREFOR, AND USE THEREOF” (Rigerna Therapeutics (Beijing) Co., Ltd., priority 2022, published 2026).
# Experiments:
# [1] = system: hyperuricemia mouse model; experiment: Therapeutic effect in hyperuricemia model mice (uric acid inhibitors injected subcutaneously), Example 8; assay type: in vivo, C57BL/6 mice; conditions: mUox@iLAND 200 μL tail vein once; Allopurinol daily in drinking water; vs PBS group; FIG. 15
# Source text: (§1) Female C57BL/6 mice aged 6 to 8 weeks were purchased from SPF (BEIJING) BIOTECHNOLOGY CO., LTD. The mice were randomly divided into 4 groups and subjected to different treatments, i.e., one group was fed normally, and the other three groups were constructed as models of hyperuricemia. For model mice, uric acid inhibitors were subcutaneously injected on Day −14. On Day 0, blood of all the mice was collected by orbital sampling, and serum was separated to detect uric acid levels. After confirming that the models of mice were successfully modeled, the mice were administrated with drug. The mice that were not subjected to the model construction were raised normally and administrated through tail vein injection with 200 μL of PBS (Control group, G1). The mice were subject to the model construction, and on 14 days after the model construction, the mice were administrated through tail vein injection with 200 μL of PBS (PBS group, G2). […] At different time points after the drug administration, blood of the mice was collected by orbital sampling, and the serum was separated and analyzed for uric acid and other biochemical indices. The changes in weight of the mice were recorded throughout the model construction and drug administration.
# [2] = system: hyperuricemia mouse model; experiment: Therapeutic effect in hyperuricemia model mice (0.15% high-purine feed), Example 9; assay type: in vivo, C57BL/6 mice; conditions: for serum uric acid during treatment: Allopurinol daily in drinking water
# Source text: as §1, with “For the” for “For”, “the mice” for “uric acid inhibitors”, “fed with 0.15% high-purine feed starting from” for “subcutaneously injected on”, “−14, that is, the hyperuricemia model was constructed by continuous high-purine diet.” for “−14.”, “administration. […] The liver tissue was taken for metabolomics analysis, and the heart, liver, spleen, lung, kidney, and other tissues and organs were fixed and analyzed for pathological changes by H&E staining.” for “administration.”
# The same method as step 1 of the present example was used to construct the hyperuricemia mouse model, and the therapeutic effect of the novel lipid nanoparticle Uox1@iLAND in the hyperuricemia mouse model was evaluated. […] At different time points after the drug administration, blood of the mice was collected by orbital sampling, and the serum was separated and the uric acid level was measured.
smiles,measurement,setting,value
Oc1ncnc2[nH]ncc12 [Allopurinol],serum uric acid during treatment,[1],able to maintain a certain level of uric acid
same,serum uric acid level reached,"[2]; step 1, Allopurinol daily in drinking water, FIG. 19",around 0 μM
same,serum uric acid during treatment,"[2]; step 1, mUox@iLAND 200 μL tail vein once, FIG. 19",lowered the uric acid level below the normal level
same,serum uric acid during treatment,"[2]; step 2, Uox1@iLAND 200 μL tail vein once, FIG. 24",lower the uric acid level to a level same as the normal level or a level lower than the normal level
